This note sets out measurements from patent US10792260B2, “Retinopathy treatment” (CHS Pharma, Inc., priority 2013, dated 2020).

Each structure is given as a SMILES string.

The subject of test [1] is ARPE19 cells. Put plainly: TBHP induced oxidative stress, cell viability by MTS assay. The note with it: for protection against TBHP damage as measured by cell viability: 24 hours pretreatment, varying concentrations of TBHP.
Procedure: Cell culture studies using RPE cells—For cell culture experiments human RPE cell line ARPE19 (ATCC # CRL 2302) purchased from American Type Culture Collection (Rockville, Md.) was used. Cells were maintained in DMEM F-12 supplemented with L-glutamine. The culture media also contained 10% fetal bovine serum, 100 units/ml penicillin and 100 ug/ml streptomycin at 37 C and 5% CO2. Cells from passages two to five were treated with either no drug or a range of concentrations of the experimental drugs prior to exposing them to oxidative stress. Oxidative stress was induced chemically by adding tert-butyl hydrogen peroxide (TBHP) or by exposing the cells to UVB light. ARPE19 cells were plated in 96 well plates at a concentration of 10,000 cells/well. Change in cellular viability was measured using the MTS assay kit from Promega (Madison, Wis.).
Experiments involving TBHP induced oxidative stress—ARPE19 cells were grown for 24 hours in 96 well plates in DMEM F-12 complete media. Then they were either treated with no drug or pre-incubated with the experimental drug for 24 hours. The next day the cells were exposed to a range of concentrations (175 μM to 300 μM) of TBHP for 24 hours. On the following day cell viability was measured by the MTS assay (Promega) according to the manufacturer's protocol and which was measured by absorbance at 490 nm using a colorimetric microtiter plate reader (SpectraMax Plus 384; Molecular Devices).
(§2) Cell viability assays—Cellular viability was determined using the CellTiter 96 Aqueous One Cell Proliferation Assay from Promega (Madison, Wis.) as described elsewhere (Marchetti et al, 2009). This assay contains a tertrazolium salt that is converted to formazan dye by the activity of mitochondrial dehydrogenases. The change in color imparted by this conversion was detected by measuring absorbance at 490 nm using a colorimetric microtiter plate reader (Spectramax Plus 384, Molecular Devices).
(§3) Statistical analysis—Unless otherwise mentioned, results of all cell viability experiments represent the mean of three replicates of a representative experiment. The error bars indicate standard deviations. The means were compared using standard t-test and P values <0.05 were considered to be statistically significant.
Test [2] relates to ARPE19 cells. As to the kind of experiment: UVB radiation induced damage, cell viability by MTS assay.
Procedure: Cell culture studies using RPE cells—For cell culture experiments human RPE cell line ARPE19 (ATCC # CRL 2302) purchased from American Type Culture Collection (Rockville, Md.) was used. Cells were maintained in DMEM F-12 supplemented with L-glutamine. The culture media also contained 10% fetal bovine serum, 100 units/ml penicillin and 100 ug/ml streptomycin at 37 C and 5% CO2. Cells from passages two to five were treated with either no drug or a range of concentrations of the experimental drugs prior to exposing them to oxidative stress. […] ARPE19 cells were plated in 96 well plates at a concentration of 10,000 cells/well. Change in cellular viability was measured using the MTS assay kit from Promega (Madison, Wis.).
Exposure of RPE cells to UVB radiation—For UV radiation assays, the ARPE19 cells were plated in 96 well plates. After 24 hours of incubation with or without our drug the cells were exposed to UVB light (Ultraspec 2000, Pharmacia Biotech) that emit wavelengths at a range of 290 nm to 370 nm. UVB light at intensities of either 800 mj/cm2 or 1200 mj/cm2 were used for our experiments. The duration of exposure of the two energy levels were determined using the formula: Hλ=t×Eλ, where Hλ is the energy level (J/cm2) t is the duration of exposure in seconds and the Eλ is the irradiance (W/cm2) of the UVB source. Irradiance was measured at 1.3 W/cm2, and the exposure times for energy levels of 800 mj/cm2 and 1200 mj/cm2 were calculated to be 9 minutes 14 seconds and 14 minutes 24 seconds, respectively. Immediately after the UVB exposure, the media was replaced with fresh complete DMEM F-12 medium and after 24 hours of incubation at 37° C. and 5% CO2, cellular viability was measured using the MTS assay.
as §2, §3
Test [3] concerns iNOS. As to the kind of experiment: Western blotting of preconditioning marker iNOS in ARPE19 cells. In kind it is cell-based, human. The note with it: RPE cells pretreated for 48 hours, 200 μM. The protocol: (§1) Western blotting protocol—Western blotting was carried out on proteins isolated from ARPE19 cells cultured in 60 mm dishes with no drug or 200 μM sulindac or a combination of 200 μM sulindac and 2 μM chelerythrine. Actin and GAPDH were used as control for standardizing protein concentrations. Two late phase preconditioning markers, Hsp27 and iNOS were detected with antibodies (Sant Cruz Biotechnology).
In general terms: In western blotting, separated proteins are transferred to a membrane and probed.

Test [4] has as its system Hsp27. Put plainly: Western blotting of preconditioning marker Hsp27 in ARPE19 cells. The test is classed as cell-based, human. The note with it: RPE cells pretreated for 48 hours, 200 μM. The protocol:
as §1

Test [5] concerns BALB/c mice. Put plainly: Photooxidative stress in vivo study (light damage, intravitreal injection). The protocol:
Photooxidative stress in vivo study—The procedures for the in vivo experiments conformed to the ARVO Statement for the Use of Animals in Ophthalmic and Vision Research and were approved by the IACUC at FAU. For the in vivo photooxidative stress experiments albino BALB/c mice were divided into two groups. Mice belonging to the control group were kept in normal light of 12 hr light/dark cycle and not injected with any drug. The animals of the experimental group were dark-adapted for 24 hours after which they were anesthetized with ketamine/xylazine and injected intravitrealy with sulindac, total volume injected was 2 μl in each eye. Concentration of injected sulindac was 0.094 μg/μl. To prepare our injection, the sulindac powder was first dissolved in Tris buffer (pH 8.0) at a concentration of 200 mM. This 200 mM stock was further diluted in sterile PBS to get the appropriate dilution required for the injections. The sulindac solution was injected into the right eye and PBS in the left eye. The animals in the experimental group received atropine for pupil dilation followed by exposure to continuous bright white light. The intensity and duration of light exposure was 6000 lux for 24 hours. Following light exposure, animals were kept in normal light cycle for 5 days prior to harvesting the ocular tissues for histological or biochemical analysis.
Biochemical analysis of ocular tissues—After the completion of the treatment, animals were euthanized using isoflurane inhalation and eyes were enucleated. Following enucleation, the lenses were removed and retinas were carefully removed and washed in PBS. The retinas were homogenized in RIPA lysis buffer and total protein was isolated. The retinal protein was used for evaluation of preconditioning markers and rhodopsin through Western blotting.
Analysis of photoreceptor (PR) cell viability—The eyes were enucleated and fixed in 2.5% glutaraldehyde and 2% formaldehyde, bisected along the vertical meridian, embedded, and retinal sections at 50 microns obtained. Photoxidative stress-induced loss of PR cells was quantified in LM sections by counting the number of ONL nuceli from a series of digitized images of retinal sections.

Where [6] appears, read: inhibitor 2 uM added simultaneously with sulindac.
Setting [7] is: eyes treated prior to light exposure.
Setting [8] is: intravitreal 2 μl of 0.094 μg/μl before 6000 lux for 24 hours.

As for `CCCCCC(O)CCCC(=O)O` (stereo not drawn) [5-HD, 5-hydroxydecanoic acid], the “reversal of sulindac's protective role against TBHP” value in test [1] (mK(ATP) channel blocker 50 uM or 75 uM co-incubated with sulindac) is recorded as “almost complete reversal”.
As to `CCC(=O)NC[C@H](Cc1ccc(OCCc2nc(-c3ccccc3)oc2C)cc1)N/C(C)=C\C(=O)c1ccc(C(F)(F)F)cc1` [GW 6471], the “effect on sulindac's protection of RPE cells against TBHP induced stress” value in test [1] (PPAR alpha antagonist added with sulindac) is “prevented the protection”.
`O=c1c2nc(Br)n([C@@H]3O[C@@H]4CO[P@@](O)(=S)O[C@H]4[C@H]3O)c2nc2[nH]c(-c3ccccc3)cn12` [Rp-Br-8-PET-cGMPs]: the “reversal of protection by sulindac preincubation (UVB damage) on PKG inhibition” value in test [2] (PKG inhibitor with sulindac) is “significantly reversed”.
For the compound `COc1ccc2c(c[n+](C)c3c4cc5c(cc4ccc23)OCO5)c1OC` [chelerythrine], the “reversal of protective effect of sulindac against UV damage” value in test [2] (setting [6]) is recorded as “significantly reversed the protective effect”. Besides, in test [1] (setting [6]), the “reversal of protective effect of sulindac against TBHP damage” value was “significantly reversed the protective effect”.
As for `CC(=O)c1c(O)c(C)c(O)c(Cc2c(O)c3c(c(C(=O)/C=C/c4ccccc4)c2O)OC(C)(C)C=C3)c1O` [rottlerin], the “reversal of the sulindac protection against UVB” value in test [2] (inhibitor 3 uM with sulindac) is reported as “no reversal”.
Take `CC1=C(CC(=O)O)c2cc(F)ccc2/C1=C\c1ccc(S(C)(=O)=O)cc1` [sulindac sulfone]: the “protection against UV damage (cell viability)” value in test [2] (200 uM, in place of sulindac) is given as “complete protection”.
Consider `CC1=C(CC(=O)O)c2cc(F)ccc2/C1=C\c1ccc([S+](C)[O-])cc1` (stereo not drawn) [sulindac], for which the “induction of iNOS” value in test [3] was “significant induction”. In test [4], the “induction of Hsp27” value is given as “significant induction”. Moreover, in test [5] (setting [7]), the “Hsp27 level in retinal total protein (Western blotting)” value was “upregulation” and the “iNOS level in retinal total protein (Western blotting)” value is given as “upregulation”. Further, in test [5] (setting [8]), the “Rhodopsin levels by Western blotting, treated eye compared to PBS-treated eye” value was “higher” and the “protection of photoreceptors against photooxidative stress induced loss of viability (histology)” value is on record as “protection of photoreceptors”. For the same compound, in test [5] (intravitreal 2 μl of 0.094 μg/μl before 6000 lux for 24 hours, histological sections), the “thickness of the photoreceptor cell nuclear layer, greater than PBS-treated eye” value is listed as “about 40%”. The “protection against UVB exposure (cell viability)” value in test [2] (200 uM, 24 hours pretreatment, 1200 mj UVB) is “about 50%”. For the same compound, the “protection against TBHP damage as measured by cell viability” value in test [1] (sulindac 125 uM) is reported as “essentially complete protection”. Besides, the “protection against TBHP damage as measured by cell viability” value in test [1] (sulindac 200 uM) was “essentially complete protection”.
Consider `O=S(=O)(O)c1cc(O)c(O)c(S(=O)(=O)O)c1` [tiron], for which, in test [1] (ROS scavenger 1 uM or 2 uM coincubated with sulindac), the “reversal of sulindac's protection against TBHP” value is on record as “complete reversal”.
